How the values were obtained:
[1] = system: HLA-A*0207 and HLA-B*1502 alleles
[2] = system: HLA-A*0207 allele
[3] = system: HLA-B*1502 allele

Sensitivity (%) [1]: 61.54% | Specificity (%) [1]: 73.51% | Sensitivity (%) [2]: 42.31% | Specificity (%) [2]: 83.18% | Sensitivity (%) [3]: 26.92% | Specificity (%) [3]: 90.33%
Compound: Nc1nnc(-c2cccc(Cl)c2Cl)c(N)n1 [lamotrigine, Lamotrigine]

— US20200318189A1 (CHANG GUNG MEMORIAL HOSPITAL, LINKOU, priority 2017, published 2020)
